Reference: publication PMC9837035 (Nature Communications, 2023)
Where “and” joins values, the source holds several entries; their conditions need not be identical. Identical values can stand only once. Like-named read-outs stand apart in the source and are kept apart here.

Key:
[1] = Caco-2 permeability assay; type: in vitro ADME; conditions: human
[2] = system: Caco-2; test: Caco-2 permeability assay; type: in vitro ADME; conditions: replicate values
[3] = molecular target: MLL4
[4] = molecular target: T1, NSD2 (Homo sapiens, UniProt O96028)
T1 sequence (O96028 whole entry): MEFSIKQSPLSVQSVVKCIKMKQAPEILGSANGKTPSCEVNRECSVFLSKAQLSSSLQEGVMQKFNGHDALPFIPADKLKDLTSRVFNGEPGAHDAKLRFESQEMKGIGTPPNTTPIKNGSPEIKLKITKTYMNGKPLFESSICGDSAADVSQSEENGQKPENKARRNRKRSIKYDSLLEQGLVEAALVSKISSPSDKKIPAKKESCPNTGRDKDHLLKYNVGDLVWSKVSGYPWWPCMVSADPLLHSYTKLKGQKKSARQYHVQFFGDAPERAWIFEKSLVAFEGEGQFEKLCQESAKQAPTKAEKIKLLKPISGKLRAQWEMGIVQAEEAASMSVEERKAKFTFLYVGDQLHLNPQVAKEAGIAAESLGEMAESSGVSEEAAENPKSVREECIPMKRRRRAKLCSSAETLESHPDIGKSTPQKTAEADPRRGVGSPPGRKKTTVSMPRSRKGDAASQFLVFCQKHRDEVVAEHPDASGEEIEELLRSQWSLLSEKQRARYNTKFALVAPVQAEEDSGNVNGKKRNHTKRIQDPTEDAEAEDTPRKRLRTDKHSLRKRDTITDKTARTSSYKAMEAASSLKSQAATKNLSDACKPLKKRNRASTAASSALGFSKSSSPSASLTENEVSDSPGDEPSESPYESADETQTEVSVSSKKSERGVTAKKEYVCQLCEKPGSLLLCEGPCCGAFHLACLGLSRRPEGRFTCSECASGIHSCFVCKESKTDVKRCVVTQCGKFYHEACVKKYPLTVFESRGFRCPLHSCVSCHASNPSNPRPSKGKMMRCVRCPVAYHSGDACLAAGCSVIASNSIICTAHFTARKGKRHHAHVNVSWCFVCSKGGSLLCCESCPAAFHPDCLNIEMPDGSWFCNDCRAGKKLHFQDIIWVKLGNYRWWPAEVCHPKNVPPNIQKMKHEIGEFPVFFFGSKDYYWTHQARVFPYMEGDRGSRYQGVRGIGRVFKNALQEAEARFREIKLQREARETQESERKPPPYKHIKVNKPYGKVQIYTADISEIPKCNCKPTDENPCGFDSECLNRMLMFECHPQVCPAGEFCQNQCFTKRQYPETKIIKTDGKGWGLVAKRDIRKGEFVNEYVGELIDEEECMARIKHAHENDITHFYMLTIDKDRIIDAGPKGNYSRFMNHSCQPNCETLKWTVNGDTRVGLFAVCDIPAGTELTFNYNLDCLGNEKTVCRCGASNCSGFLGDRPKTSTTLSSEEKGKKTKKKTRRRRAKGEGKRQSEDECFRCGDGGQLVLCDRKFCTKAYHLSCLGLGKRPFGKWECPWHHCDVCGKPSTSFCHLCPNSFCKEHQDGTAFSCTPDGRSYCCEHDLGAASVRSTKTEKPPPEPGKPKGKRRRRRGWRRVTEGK

[5] = system: Salmonella typhimurium TA100; test: Ames test, TA100
Method: The Salmonella mutagenicity assay was performed by pre-incubating the test compounds for 20 min with Salmonella typhimurium strains TA98 and TA100, with and without metabolic activation (S9 mixture).
After this time 2 mL of top agar was added to the mixture and poured on to a plate containing minimum agar. The plates were incubated at 37 °C for 49 h and the His ± revertant colonies were counted manually and automatically by a colony counter (Colony analyzer CA-11D systems, System science Co.,Ltd.). The influence of metabolic activation was tested by adding 500 μL of 10% S9 mixture. All experiments were performed in duplicate. […] DMSO served as the negative control (100 μL/plate). The mutagenic index (MI, the average number of revertants per plate divided by the average number of revertants per plate from the negative control) was also calculated for each dose. A sample was considered positive when the MI was equal to or greater than 2 for at least one of the tested doses.

[6] = molecular target: T1, NSD2; test: Radioisotope-based methyltransferase assay (selectivity)
[7] = molecular target: MLL2
Chain of MLL2 (O14686 5319-5537): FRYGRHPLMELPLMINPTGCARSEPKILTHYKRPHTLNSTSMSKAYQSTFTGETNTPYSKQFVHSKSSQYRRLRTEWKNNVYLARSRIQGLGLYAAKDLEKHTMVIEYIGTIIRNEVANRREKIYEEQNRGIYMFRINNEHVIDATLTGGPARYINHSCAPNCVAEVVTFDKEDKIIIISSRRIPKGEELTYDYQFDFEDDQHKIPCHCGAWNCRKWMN
Chain of MLL2 (Q9C005 whole entry, further chain): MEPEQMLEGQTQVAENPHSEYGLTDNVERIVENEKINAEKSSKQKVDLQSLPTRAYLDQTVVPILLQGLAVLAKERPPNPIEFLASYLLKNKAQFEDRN
Chain of MLL2 (Q15291 whole entry, further chain): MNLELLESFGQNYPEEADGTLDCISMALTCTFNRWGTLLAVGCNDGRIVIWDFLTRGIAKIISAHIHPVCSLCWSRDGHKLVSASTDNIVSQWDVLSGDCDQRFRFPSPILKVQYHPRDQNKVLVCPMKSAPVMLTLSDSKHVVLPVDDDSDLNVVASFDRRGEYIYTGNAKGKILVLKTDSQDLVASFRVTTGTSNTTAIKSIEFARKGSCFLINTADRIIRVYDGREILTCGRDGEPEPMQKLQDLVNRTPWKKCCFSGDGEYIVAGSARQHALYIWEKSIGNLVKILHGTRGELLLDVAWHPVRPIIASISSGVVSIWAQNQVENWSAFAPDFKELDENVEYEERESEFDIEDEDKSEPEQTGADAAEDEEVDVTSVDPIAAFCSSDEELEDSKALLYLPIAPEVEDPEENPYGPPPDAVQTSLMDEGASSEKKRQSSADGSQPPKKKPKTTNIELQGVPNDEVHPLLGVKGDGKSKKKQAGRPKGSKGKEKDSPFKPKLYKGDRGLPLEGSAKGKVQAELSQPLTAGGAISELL
Chain of MLL2 (Q9UBL3 whole entry, further chain): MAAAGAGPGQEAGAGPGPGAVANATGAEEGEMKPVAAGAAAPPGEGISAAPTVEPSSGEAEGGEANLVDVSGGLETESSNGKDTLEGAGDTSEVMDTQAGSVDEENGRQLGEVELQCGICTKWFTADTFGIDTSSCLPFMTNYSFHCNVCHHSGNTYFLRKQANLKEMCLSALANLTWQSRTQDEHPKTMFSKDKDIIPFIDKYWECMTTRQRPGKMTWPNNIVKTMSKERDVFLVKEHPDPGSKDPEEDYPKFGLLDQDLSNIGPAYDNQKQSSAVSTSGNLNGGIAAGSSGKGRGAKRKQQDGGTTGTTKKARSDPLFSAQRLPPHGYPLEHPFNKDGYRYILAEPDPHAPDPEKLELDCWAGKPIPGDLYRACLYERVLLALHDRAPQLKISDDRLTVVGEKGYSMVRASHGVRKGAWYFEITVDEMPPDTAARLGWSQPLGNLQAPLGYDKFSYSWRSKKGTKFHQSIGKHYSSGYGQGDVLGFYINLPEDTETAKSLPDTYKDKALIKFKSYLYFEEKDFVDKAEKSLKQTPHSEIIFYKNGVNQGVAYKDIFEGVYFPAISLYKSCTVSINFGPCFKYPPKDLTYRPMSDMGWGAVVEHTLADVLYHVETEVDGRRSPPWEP

[8] = molecular target: NSD2 (T1150A) (Homo sapiens, UniProt O96028, T1150A)
Chain of NSD2 (T1150A) (O96028 whole entry T1150A): as the sequence (O96028 whole entry) above, with T1150A counted along it

[9] = Pharmacokinetic (PK) assay; type: in vivo, mice
Method: PK studies were performed using 8-week-old male Crl:CD1 ICR mice in accordance with the animal experimental protocol, and procedures were approved by the Animal Care and Ethics Committee of Sekisui Medical. […] […] RK-701 in samples were analyzed by liquid chromatography-tandem mass spectrometry (LC–MS/MS) after deproteinization with acetonitrile. […] PK parameters were calculated using the program Phenix WinNolin (Certara).
The LC-MS/MS system comprised of ACQUITY Ultra Performance LC (Waters) and 4000 QTRAP (Sciex). Acquity UPLC BEH C18 (2.1 × 50 mm, 1.7 μm, Waters) was used as analytical column. The mobile phase consisted of 0.1% formic acid in water (mobile phase A) and acetonitrile (mobile phase B) at a total flow rate of 0.5 mL/min with a column temperature of 40 °C. The chromatographic separation was achieved using gradient elution. The gradient program was: 20% B from 0.0–0.1 min, 20–95% B from 0.1–1.5 min, 95–95% B from 1.5–2.0 min, and 20% B from 2.01–3.0 min. The MS/MS instrument was operated in positive-ion mode with an ion spray voltage of 4200 V, entrance potential of 10 V and source temperature at 600 °C. The curtain gas was set at 12 psi, ion source gas 1 at 40 psi, ion source gas 2 at 50 psi. […] Data acquisition and quantitation were performed by using Analyst (ver.1.4.3, Sciex).

[10] = system: mice; test: Mouse acute toxicity assay, survival; type: in vivo; conditions: intravenous; for Number of alive mice: 2-week observation
In short: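 Four-week-old female ICR mice received compounds intravenously in saline with 10% DMSO and 1% Tween 80; body weight and survival monitored.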

[11] = molecular target: EZH2 (Y641F) (Homo sapiens, UniProt Q15910, Y641F); test: Radioisotope-based methyltransferase assay (selectivity)
[12] = molecular target: PRMT1 (Homo sapiens, UniProt Q99873); test: as above
Chain of PRMT1 (Q99873 whole entry): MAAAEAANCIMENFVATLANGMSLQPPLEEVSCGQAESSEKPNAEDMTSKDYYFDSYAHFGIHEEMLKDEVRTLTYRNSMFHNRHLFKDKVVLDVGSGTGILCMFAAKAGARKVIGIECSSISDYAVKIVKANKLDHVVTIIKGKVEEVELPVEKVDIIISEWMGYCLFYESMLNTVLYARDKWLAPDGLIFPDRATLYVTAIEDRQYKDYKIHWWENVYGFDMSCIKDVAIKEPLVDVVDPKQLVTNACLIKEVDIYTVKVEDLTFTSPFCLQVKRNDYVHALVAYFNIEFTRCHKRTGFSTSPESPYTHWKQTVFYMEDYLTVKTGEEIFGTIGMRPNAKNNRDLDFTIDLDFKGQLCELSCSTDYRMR

[13] = molecular target: DNMT1 (Homo sapiens, UniProt P26358); test: biochemical
[14] = molecular target: MLL4 (Homo sapiens, UniProt Q9UMN6)
Chain of MLL4 (Homo sapiens, UniProt Q9UMN6) (Q9UMN6 2490-2715): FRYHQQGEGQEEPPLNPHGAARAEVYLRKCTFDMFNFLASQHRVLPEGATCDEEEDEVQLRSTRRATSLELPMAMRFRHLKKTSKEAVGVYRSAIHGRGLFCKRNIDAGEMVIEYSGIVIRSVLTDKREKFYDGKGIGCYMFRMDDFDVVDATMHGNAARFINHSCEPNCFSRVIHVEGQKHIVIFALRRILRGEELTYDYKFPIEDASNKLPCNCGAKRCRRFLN
Chain of MLL4 (Homo sapiens, UniProt Q9UMN6) (Q9UBL3 whole entry, further chain): as the sequence (Q9UBL3 whole entry, further chain) above
Chain of MLL4 (Homo sapiens, UniProt Q9UMN6) (Q9C005 whole entry, further chain): as the sequence (Q9C005 whole entry, further chain) above
Chain of MLL4 (Homo sapiens, UniProt Q9UMN6) (Q15291 whole entry, further chain): as the sequence (Q15291 whole entry, further chain) above

[15] = molecular target: MLL2 (Homo sapiens, UniProt O14686)
Chain of MLL2 (Homo sapiens, UniProt O14686) (O14686 5319-5537): as the sequence (O14686 5319-5537) above
Chain of MLL2 (Homo sapiens, UniProt O14686) (Q9C005 whole entry, further chain): as the sequence (Q9C005 whole entry, further chain) above
Chain of MLL2 (Homo sapiens, UniProt O14686) (Q15291 whole entry, further chain): as the sequence (Q15291 whole entry, further chain) above
Chain of MLL2 (Homo sapiens, UniProt O14686) (Q9UBL3 whole entry, further chain): as the sequence (Q9UBL3 whole entry, further chain) above

[16] = male, Crl:CD1 ICR, mouse, ip, mice, plasma, single intraperitoneal 25 mg/kg

Chain of MLL4 (Q9UMN6 2490-2715): as the sequence (Q9UMN6 2490-2715) above
Chain of MLL4 (Q9UBL3 whole entry, further chain): as the sequence (Q9UBL3 whole entry, further chain) above
Chain of MLL4 (Q9C005 whole entry, further chain): as the sequence (Q9C005 whole entry, further chain) above
Chain of MLL4 (Q15291 whole entry, further chain): as the sequence (Q15291 whole entry, further chain) above

Structure (SMILES): Cc1c(C(=O)NC(CCC2CC2)C(=O)Nc2ccc(C#N)cc2)[nH]c2c1C(=O)CC(C)(C)C2 (centres unmarked) [RK-701]
- Papp A→B ([1]; Caco-2, A to B, replicate values, read-out: Papp A to B): 48 nm/s
- Papp A→B ([1]; Caco-2, Apical to Basal, read-out: Caco-2 permeability Papp A to B): 52.3 ± 4.7 nm/s
- Papp B→A ([1]; Caco-2, B to A, replicate values, read-out: Papp B to A): 195 nm/s
- Papp B→A ([1]; Caco-2, Basal to Apical, read-out: Caco-2 permeability Papp B to A): 189 ± 9.2 nm/s
- Papp A to B ([2]; A to B): 5.724 and 5.177
- Papp B to A ([2]; B to A): 17.8638 and 19.3603
- IC50 [3]: > 100 µM
- IC50 [4]: > 100 µM
- Number of reverants/plate ([5]; TA100, + S9, base pair substitution mutation, 4.88 μg/plate): 107 and 119
- Number of reverants/plate ([5]; TA100, + S9, base pair substitution mutation, 19.5 μg/plate): 117 and 120
- Number of reverants/plate ([5]; TA100, + S9, base pair substitution mutation, 78.1 μg/plate): 117 and 128
- Number of reverants/plate ([5]; TA100, + S9, base pair substitution mutation, 313 μg/plate): 97 and 127
- Number of reverants/plate ([5]; TA100, + S9, base pair substitution mutation, 1250* μg/plate): 98 and 121
- Number of reverants/plate ([5]; TA100, + S9, base pair substitution mutation, 2500* μg/plate): 117 and 90
- Number of reverants/plate ([5]; TA100, + S9, base pair substitution mutation, 5000* μg/plate): 111 and 110
- Number of revertants/plate ([5]; TA100, +S9, 4.88 μg/plate): 113
- Number of revertants/plate ([5]; TA100, +S9, 19.5 μg/plate): 119
- Number of revertants/plate ([5]; TA100, +S9, 78.1 μg/plate): 123
- Number of revertants/plate ([5]; TA100, +S9, 313 μg/plate): 112
- Number of revertants/plate ([5]; TA100, +S9, 1250 μg/plate, insoluble material): 110
- Number of revertants/plate ([5]; TA100, +S9, 2500 μg/plate, insoluble material): 104
- Number of revertants/plate ([5]; TA100, +S9, 5000 μg/plate, insoluble material): 111
- Number of reverants/plate ([5]; TA100, - S9, base pair substitution mutation, 4.88 μg/plate): 110 and 135
- Number of reverants/plate ([5]; TA100, - S9, base pair substitution mutation, 19.5 μg/plate): 102 and 108
- Number of reverants/plate ([5]; TA100, - S9, base pair substitution mutation, 78.1 μg/plate): 90 and 106
- Number of reverants/plate ([5]; TA100, - S9, base pair substitution mutation, 313 μg/plate): 125 and 110
- Number of reverants/plate ([5]; TA100, - S9, base pair substitution mutation, 1250* μg/plate): 99 and 94
- Number of reverants/plate ([5]; TA100, - S9, base pair substitution mutation, 2500* μg/plate): 98 and 108
- Number of reverants/plate ([5]; TA100, - S9, base pair substitution mutation, 5000* μg/plate): 93 and 98
- Number of revertants/plate ([5]; TA100, -S9, 4.88 μg/plate): 123
- Number of revertants/plate ([5]; TA100, -S9, 19.5 μg/plate): 105
- Number of revertants/plate ([5]; TA100, -S9, 78.1 μg/plate): 98
- Number of revertants/plate ([5]; TA100, -S9, 313 μg/plate): 118
- Number of revertants/plate ([5]; TA100, -S9, 1250 μg/plate, insoluble material): 97
- Number of revertants/plate ([5]; TA100, -S9, 2500 μg/plate, insoluble material): 103
- Number of revertants/plate ([5]; TA100, -S9, 5000 μg/plate, insoluble material): 96
- mutagenicity ([5]; TA100, regardless of metabolic activation): no mutagenicity
- IC50 [6]: > 100 µM
- IC50 [7]: > 100 µM
- IC50 [8]: > 100 µM
- concentration at 1 h ([9]; Time 1 h, read-out: concentration (pharmacokinetic properties)): 17.9827 µM and 11.6451 µM
- concentration at 1 h ([9]; Time 2 h, read-out: concentration (pharmacokinetic properties)): 17.6692 µM and 34.4874 µM
- concentration at 1 h ([9]; Time 4 h, read-out: concentration (pharmacokinetic properties)): 51.2832 µM and 42.7733 µM
- concentration at 1 h ([9]; Time 8 h, read-out: concentration (pharmacokinetic properties)): 20.155 µM and 23.2902 µM
- AUC(0-inf) [9, 16]: 418 ± 7 µM·h
- Cmax [9, 16]: 42.4 µM
- Tmax [9, 16]: 4 h
- half-life [9, 16]: 1.4 ± 0.1 h
- concentration at 1 h ([9]; male, Crl:CD1 ICR, mouse, plasma, intraperitoneal, 25 mg/kg, Time 1 h, read-out: concentration (pharmacokinetic properties)): 9.2 µM
- concentration at 2 h ([9]; male, Crl:CD1 ICR, mouse, plasma, intraperitoneal, 25 mg/kg, Time 2 h, read-out: concentration (pharmacokinetic properties)): 25.8 µM
- concentration at 4 h ([9]; male, Crl:CD1 ICR, mouse, plasma, intraperitoneal, 25 mg/kg, Time 4 h, read-out: concentration (pharmacokinetic properties)): 33.1 µM
- concentration at 8 h ([9]; male, Crl:CD1 ICR, mouse, plasma, intraperitoneal, 25 mg/kg, Time 8 h, read-out: concentration (pharmacokinetic properties)): 28.2 µM
- Number of alive mice ([10]; 12.5 mg/kg): 3/3
- Number of alive mice ([10]; 25 mg/kg): 3/3
- Number of alive mice ([10]; 50 mg/kg): 3/3
- Number of alive mice ([10]; 100 mg/kg): 3/3
- acute toxicity, survival ([10]; mice): survived for two weeks
- IC50 [11]: > 100 µM
- IC50 [12]: > 100 µM
- IC50 [13]: > 100 µM

Structure (SMILES): Nc1ncnc2c1ncn2[C@@H]1O[C@H](CSCC[C@H](N)C(=O)O)[C@@H](O)[C@H]1O [SAH, S-(5'-Adenosyl)-L-homocysteine, reference compound]
- IC50 [14]: 1.13 µM
- IC50 [15]: 11.6 µM
